In patent US20240409530A1, “Disubstituted Pyrimidine Compounds for Ketohexokinase Inhibition” (Centennial Therapeutics, LLC, priority 2023, published 2024):

Assays:
Human recombinant KHK-A = Human recombinant KHK-A (Homo sapiens (Human), UniProt P50053); assay: KHK inhibition assay, recombinant isozyme (coupled pyruvate kinase/LDH, NADH absorbance 340 nm); format: biochemical; settings: recombinant isozyme 6 nM, fructose 2 mM, ATP 0.1 mM
Protocol: (§1) Determination of Human and Rat recombinant KHK-A and KHK-C isozyme IC50 Values
(§2) An assay reagent cocktail was prepared by combining NADH, water, TEA, KCl, MgCl2, PEP, ATP, DTT, coupling enzymes (pyruvate kinase and lactate dehydrogenase, LDH) to final concentrations as shown in Table B.
(§3) To this was added the relevant KHK isozyme to a final concentration of 6 nM. Aliquots of each inhibitor compound were diluted via 5-fold serial dilutions to produce final concentrations ranging from 1000 nM to 0.064 nM. The inhibitor aliquots were added to the assay reagent cocktail containing KHK with fructose (at a concentration of 2 mM) in a 96-well plate. The absorbance at 340 nm was measured via spectrophotometry and inhibition was analyzed using non-linear regression.

Human recombinant KHK-C = Human recombinant KHK-C (Homo sapiens (Human), UniProt P50053); assay: as above; format: biochemical; settings: recombinant isozyme 6 nM, fructose 2 mM, ATP 0.1 mM
Protocol: as §1, §2, §3

Rat recombinant KHK-C = Rat recombinant KHK-C (Rattus norvegicus (Rat), UniProt Q02974); assay: as above; format: biochemical; settings: recombinant isozyme 6 nM, fructose 2 mM, ATP 0.1 mM
Protocol: as §1, §2, §3

Rat recombinant KHK-A = Rat recombinant KHK-A (Rattus norvegicus (Rat), UniProt Q02974); assay: as above; format: biochemical; settings: recombinant isozyme 6 nM, fructose 2 mM, ATP 0.1 mM
Protocol: as §1, §2, §3

[1] = biological target: human KHK-C in engineered HepG2 cells (Homo sapiens (Human), UniProt P50053); assay: Cell-based potency assay (KHK-C-overexpressing HepG2 assay), F1P by LC/MS; settings: fructose 30 mM, 5 min, F1P produced, geomean
Protocol: Testing inhibition effect of compounds against human KHK-C in engineered HepG2 cells.
Engineered HepG2 cells were generated using methods known to those of skill in the art. Briefly, HepG2 cells were incubated with lentivirus carrying a transgene encoding human KHK-C, and grown under antibiotic selection.
KHK-C-overexpressing HepG2 cells were grown in RPMI1640 supplemented media on T-182 cm^2 flask to near confluency (about 25-40×10^6 cells). The growth media was aspirated, the flask was washed with 10 mL PBS, and 4 mL trypsin solution (0.25% (w/v)+0.25% (w/v) EDTA) was added, followed by incubation at 37° C. for 3-5 mins. The cells were pelleted and resuspended in 2 mL complete media.
The cells were then placed in a 96-well plate at 20,000-40,000 cells per well and grown for 20-28 hours at 37° C. to allow adherence.
Inhibitor compounds were diluted in DMSO to 50 μM, then serially diluted with MEM media (ThermoFisher). Final inhibitor concentration ranged from 5000 nM to 0.32 nM.
The RPMI medium was removed from the plate of confluent cells. The plate was then incubated for 35 min at 37° C. with 0.1 mL of the diluted inhibitor compounds in MEM. After, an additional 0.1 mL of the diluted inhibitor compounds in MEM with fructose, or 0.1 mL of MEM media without inhibitor compound and/or fructose; yielding a final concentration of fructose at 30 mM was added. The plate was subsequently incubated for 5 min at 37° C., then placed on ice to stop the reactions.
Next 200 μL of cold 80% (v/v) methanol:water was added to al wells and placed in the −80° C. freezer for 1 hour with an adhesive seal. The plate was vortexed and cell debris removed by centrifugation. To measure F1P produced, the resulting supernatant fraction was analyzed by LC/MS.

human KHK in HepG2 Cells = human KHK in HepG2 Cells (Homo sapiens (Human), UniProt P50053); assay: Cell-based potency assay (HepG2 assay), F1P by LC/MS; settings: fructose 20 mM, 20 min, F1P produced
Protocol: Testing inhibition effect of compounds against human KHK in HepG2 Cells
HepG2 cells were grown in RPMI1640 supplemented media on 100 mm plates to near confluency (about 5-8×10^6 cells). The growth media was aspirated and 4 mL trypsin solution (0.25% (w/v)+0.25% (w/v) EDTA) was added, followed by incubation at 37° C. for 5-10 mins. The cells were pelleted and resuspended in 2 mL complete media.
The cells were then placed in a 96 well plate at 20,000-50,000 cells per well and grown for 20-28 hours at 37° C. to allow adherence.
Inhibitor compounds were diluted in DMSO to 50 μM, then serially diluted with MEM media (ThermoFisher). Final inhibitor concentration ranged from 1000 nM to 0.064 nM (5-fold dilution series).
The RPMI medium was removed from the plate of confluent cells. The plate was then incubated for 35 min at 37°, after which were added 0.1 mL of the diluted inhibitor compounds in MEM with fructose, 0.1 mL of MEM media without inhibitor compound or fructose, or trypsin; yielding a final concentration of fructose at 20 mM. The plate was subsequently incubated for 20 min at 37°, then placed on ice to stop the reactions.
Next, 200 μL of cold 80% (v/v) methanol:water was added to all wells, except the controls used to enumerate cell count. The plate was vortexed and cell debris removed by centrifugation. To measure F1P produced, the resulting supernatant fraction was analyzed by LC/MS.

Sequence of Human recombinant KHK-A (P50053 other isoform, or with tags, fused parts or gaps): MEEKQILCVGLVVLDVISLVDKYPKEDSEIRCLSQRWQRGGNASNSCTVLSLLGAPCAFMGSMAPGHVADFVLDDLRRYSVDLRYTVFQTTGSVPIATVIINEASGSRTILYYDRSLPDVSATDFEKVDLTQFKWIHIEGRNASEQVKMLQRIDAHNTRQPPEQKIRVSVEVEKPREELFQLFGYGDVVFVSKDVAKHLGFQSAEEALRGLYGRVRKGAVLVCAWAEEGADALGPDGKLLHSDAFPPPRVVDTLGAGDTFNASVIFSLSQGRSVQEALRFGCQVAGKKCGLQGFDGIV
Sequence of Rat recombinant KHK-C (Q02974 whole entry): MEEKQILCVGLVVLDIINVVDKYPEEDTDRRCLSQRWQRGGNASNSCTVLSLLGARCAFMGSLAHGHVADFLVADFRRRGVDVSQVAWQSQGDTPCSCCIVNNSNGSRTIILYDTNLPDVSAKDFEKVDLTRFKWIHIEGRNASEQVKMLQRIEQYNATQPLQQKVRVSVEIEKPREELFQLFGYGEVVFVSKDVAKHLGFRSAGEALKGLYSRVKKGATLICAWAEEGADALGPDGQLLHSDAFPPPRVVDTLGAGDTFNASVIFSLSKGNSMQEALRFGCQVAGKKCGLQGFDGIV
Sequence of Rat recombinant KHK-A (Q02974 other isoform, or with tags, fused parts or gaps): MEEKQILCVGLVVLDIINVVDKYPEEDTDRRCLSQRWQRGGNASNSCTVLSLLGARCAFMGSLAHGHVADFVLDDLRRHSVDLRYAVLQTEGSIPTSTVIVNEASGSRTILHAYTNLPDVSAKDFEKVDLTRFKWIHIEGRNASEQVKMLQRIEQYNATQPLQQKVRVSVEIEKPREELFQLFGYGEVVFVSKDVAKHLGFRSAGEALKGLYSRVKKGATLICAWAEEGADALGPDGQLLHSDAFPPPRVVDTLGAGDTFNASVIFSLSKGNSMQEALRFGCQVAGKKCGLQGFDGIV
Sequence of Human recombinant KHK-C (P50053 whole entry): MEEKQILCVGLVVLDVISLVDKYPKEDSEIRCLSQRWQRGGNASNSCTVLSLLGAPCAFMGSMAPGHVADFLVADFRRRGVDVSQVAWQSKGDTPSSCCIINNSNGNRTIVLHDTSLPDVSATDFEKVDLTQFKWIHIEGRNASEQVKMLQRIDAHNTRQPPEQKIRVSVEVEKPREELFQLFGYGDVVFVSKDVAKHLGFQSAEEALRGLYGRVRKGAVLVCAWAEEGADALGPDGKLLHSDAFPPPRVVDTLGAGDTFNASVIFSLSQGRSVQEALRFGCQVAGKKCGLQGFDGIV
Sequence of human KHK-C in engineered HepG2 cells (P50053 whole entry, stated change not applied): as the sequence (P50053 whole entry) above
Sequence of human KHK in HepG2 Cells (P50053 whole entry): as above

| Compound | IC50 (Human recombinant KHK-A) [nM] | IC50 (Human recombinant KHK-C) [nM] | IC50 (Rat recombinant KHK-C) [nM] | IC50 (Rat recombinant KHK-A) [nM] | IC50 [1] [nM] | IC50 (human KHK in HepG2 Cells) [nM] |
| --- | --- | --- | --- | --- | --- | --- |
| Cc1c(-c2cnn(C3CNC3)c2)nc(N2C[C@@H](O)[C@@H]2C)nc1C(F)F [Compound A35, (2S,3R)-1-{4-[1-(3-azetidinyl)-4-pyrazolyl]-6-(difluoromethyl)-5-methyl-2-pyrimidinyl}-2-methyl-3-azetidinol] | 1.9 | 4.85 | 7.7 | 4.1 | 82 | 9 |
| Cc1c(-c2cnn(C3CN(C)C3)c2)nc(N2C[C@@H](O)[C@@H]2C)nc1C(F)F [Compound A21, (2S,3R)-1-{6-(difluoromethyl)-5-methyl-4-[1-(1-methyl-3-azetidinyl)-4-pyrazolyl]-2-pyrimidinyl}-2-methyl-3-azetidinol] | 2.05 | 1.5 | 3.33 | 1.46 | 36.5 | 2 |
| Cc1c(-c2cnn(CC(=O)N3CCNCC3)c2)nc(N2CC[C@@H]2C)nc1C(F)(F)F [Compound A3, 2-(4-{2-[(S)-2-methyl-1-azetidinyl]-5-methyl-6-(trifluoromethyl)-4-pyrimidinyl}-1-pyrazolyl)-1-(1-piperazinyl)-1-ethanone] | 4.6 | 7.48 | 8.3 | 2.9 | 186 | 25 |
